Experimental data from US12528801B2 (Givaudan SA, priority 2019, dated 2026).

Legend:
[1] = molecular target: T1, hTRPM8 (Homo sapiens, UniProt Q7Z2W7); experiment: Assay on TRPM8 modulators: calcium imaging (Fluo-4, Flexstation) in HEK293 cell line stably expressing hTRPM8; assay type: cell-based; details: HEK293 cells stably expressing hTRPM8; calcium influx, Fluo-4, Flexstation 3; sigmoidal dose-response fit
T1 construct: expressed in transfected cells
Outline: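 HEK293 cells stably expressing hTRPM8 were loaded with Fluo-4 AM plus probenecid and kept in HEPES buffer, pH 7.4. Calcium influx to serially diluted compounds was recorded for 120 s. Maximal activation was referenced to solvent control and 31.6 μM menthol, with EC values from sigmoidal dose-response fits.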

[2] = test system: trained group of panelists; experiment: Sensory studies in aqueous solution (trained panel, mouth swill); assay type: in vivo, human; details: 10 ppm in aqueous solution; for Time of max. cooling / Max. cooling: 20 mL swilled in the mouth for 60 seconds; for Max. cooling / Cooling after 1 h: panel-averaged cooling score, scale 0 to 10; for Cooling after 1 h: 1 h after swilling
Method: The compounds as listed below in Table 2 were dissolved at a concentration of 1 wt-% in propylene glycol. These solutions were then dispensed in appropriate quantities into deionized water containing 0.5 wt-% Poloxamer 407 (which is a hydrophilic non-ionic surfactant, e.g., commercially available from SigmaAldrich) and 0.25 wt-% Cremaphor® RH40 (obtained from BASF) as solubilizer, to obtain the desired final concentration of 10 ppm (parts per million) of the respective compound.
A trained group of panelists evaluated the aqueous solutions containing test compound by swilling 20 mL of the solution in the mouth for 60 seconds, followed by spitting, without rinsing the mouth afterwards for the duration of the evaluation. Panelists evaluated and recorded the cooling performance as well as other sensorial and organoleptic attributes at different timepoints over a period of two hours. Cooling performance was rated on a scale from 0 to 10 with 0 being no effect and 10 being freezing. Scores were averaged for all panelists and the cooling intensity qualified as “none” (score of 0), “low” (score above 0, up to 1), “medium” (score above 1, up to 4) “strong” (score above 4, up to 8) and “freezing” (score above 8), which are provided in Table 2.

[3] = test system: trained group of panelists; experiment: Sensory studies in model dentifrice (trained panel, tooth brushing); assay type: in vivo, human; details: 40 ppm in model unflavored dentifrice; for Cooling after 1 h: 1 h after brushing; for Cooling after 1 h / Max. cooling: panel-averaged score 0 to 10; for Time of max. cooling / Max. cooling: brushing with 1 g for 60 seconds; for Max. cooling: stock in propylene glycol (A) or benzyl alcohol (B)
Method: The compounds listed in Table 3 were dissolved at a concentration of 1 wt-% in propylene glycol^A or benzyl alcohol^B (respective solvents indicated in Table 3). These solutions were then dispersed in appropriate quantities to obtain the desired final concentration of 40 ppm (parts per million) of the test compound into a model, unflavored dentifrice, the formula of which is given below (ingredients obtained from the suppliers respectively indicated in parenthesis).
A trained group of panelists evaluated the dentifrice containing a compound of formula (I), by brushing their teeth with 1 g of the dentifrice using a toothbrush for 60 seconds, followed by spitting, without rinsing the mouth afterwards for the duration of the evaluation. Panelists evaluated and recorded the cooling performance as well as other sensorial and organoleptic attributes at different timepoints over a period of two hours. Cooling performance was rated on a scale from 0 to 10 with 0 being no effect and 10 being freezing. Scores were averaged for all panelists and the cooling intensity qualified as “none” (score of 0), “low” (score above 0, up to 1), “medium” (score above 1, up to 4) “strong” (score above 4, up to 8) and “freezing” (score above 8), which are summarized below in Table 3.

T1 sequence (Q7Z2W7 whole entry): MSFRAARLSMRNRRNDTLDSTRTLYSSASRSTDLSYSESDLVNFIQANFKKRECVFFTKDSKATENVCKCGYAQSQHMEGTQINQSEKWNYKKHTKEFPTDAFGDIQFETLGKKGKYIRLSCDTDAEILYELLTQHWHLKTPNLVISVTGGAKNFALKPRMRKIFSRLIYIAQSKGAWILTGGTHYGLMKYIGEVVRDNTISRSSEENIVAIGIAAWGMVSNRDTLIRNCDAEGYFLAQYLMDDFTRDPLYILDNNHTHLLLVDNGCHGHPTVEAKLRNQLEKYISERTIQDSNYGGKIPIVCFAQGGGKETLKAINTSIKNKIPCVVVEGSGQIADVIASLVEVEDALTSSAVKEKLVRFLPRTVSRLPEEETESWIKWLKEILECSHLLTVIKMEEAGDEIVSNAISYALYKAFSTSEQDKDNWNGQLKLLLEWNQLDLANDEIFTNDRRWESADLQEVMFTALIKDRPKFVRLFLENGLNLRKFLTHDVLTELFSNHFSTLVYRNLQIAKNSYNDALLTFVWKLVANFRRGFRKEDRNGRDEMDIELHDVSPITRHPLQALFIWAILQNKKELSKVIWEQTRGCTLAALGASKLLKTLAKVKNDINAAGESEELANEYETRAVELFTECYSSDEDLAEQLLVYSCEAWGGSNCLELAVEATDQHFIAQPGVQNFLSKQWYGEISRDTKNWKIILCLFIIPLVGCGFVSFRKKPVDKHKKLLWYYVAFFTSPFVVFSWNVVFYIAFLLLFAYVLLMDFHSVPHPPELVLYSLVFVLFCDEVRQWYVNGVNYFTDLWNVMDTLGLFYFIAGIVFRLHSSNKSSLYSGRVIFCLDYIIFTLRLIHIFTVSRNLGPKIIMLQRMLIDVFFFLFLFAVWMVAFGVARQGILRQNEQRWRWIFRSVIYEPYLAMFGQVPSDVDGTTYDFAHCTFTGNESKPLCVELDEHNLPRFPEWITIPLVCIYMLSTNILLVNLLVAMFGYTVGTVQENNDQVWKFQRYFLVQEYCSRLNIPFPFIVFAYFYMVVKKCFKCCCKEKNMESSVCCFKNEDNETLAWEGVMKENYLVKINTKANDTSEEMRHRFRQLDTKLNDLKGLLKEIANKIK

Row | EC50 [1] | Structure (SMILES) | Time of max. cooling [2] | Max. cooling [2] | Cooling after 1 h [2] | Cooling after 1 h [3] | Time of max. cooling [3] | Max. cooling [3]
1 | < 0.05 µM | CCSC(C)C(=O)N1CCCCC1c1ncc(-c2ccc(C)cc2)[nH]1 (stereo not drawn) [Compound 95, 2-(ethylthio)-1-(2-(5-(p-toly)-1H-imidazol-2-yl)piperidin-1-yl)propan-1-one] | 10 min | M (M = medium) | M (M = medium) | L (L = Low) | 5 min | M (M = medium)
2 | < 0.05 µM | CSC(C)C(=O)N1CCCCC1c1ncc(-c2ccc(C(F)(F)F)cc2)[nH]1 (stereo not drawn) [Compound 124, 2-(methylthio)-1-(2-(5-(4-(trifluoromethyl)phenyl)-1H-imidazol-2-yl)piperidin-1-yl)propan-1-one] | 20 min | M (M = medium) | M (M = medium) | M (M = medium) | 30 min | M (M = medium)
3 | < 0.05 µM | CSC(C)C(=O)N1CCCCC1c1ncc(-c2ccc(C)cc2)[nH]1 (stereo not drawn) [Compound 130, 2-(methylthio)-1-(2-(5-(p-toly)-1H-imidazol-2-yl)piperidin-1-yl)propan-1-one] | 20 min | S (S = Strong) | M (M = medium) | M (M = medium) | 20 min | S (S = Strong)
4 | < 0.05 µM | C=CC(C)C(=O)N1CCCCC1c1ncc(-c2ccc(C)cc2)[nH]1 (stereo not drawn) [Compound 163, 2-methyl-1-(2-(5-(p-tolyl)-1H-imidazol-2-yl)piperidin-1-yl)but-3-en-1-one] | 10 min | S (S = Strong) | M (M = medium) | M (M = medium) | 5 min | M (M = medium)
5 | < 0.05 µM | CCC(C)C(=O)N1CCCCC1c1ncc(-c2ccc(C)cc2)[nH]1 (stereo not drawn) [Compound 164, 2-methyl-1-(2-(5-(p-tolyl)-1H-imidazol-2-yl)piperidin-1-yl)butan-1-one] | 10 min | S (S = Strong) | M (M = medium) | M (M = medium) | 10 min | S (S = Strong)
6 | < 0.05 µM | CC[C@H](C)C(=O)N1CCCCC1c1ncc(-c2ccc(C)cc2)[nH]1 (stereo partly drawn) [Compound 166, (2S)-2-methyl-1-(2-(5-(p-tolyl)-1H-imidazol-2-yl)piperidin-1-yl)butan-1-one] | 20 min | S (S = Strong) | M (M = medium) | M (M = medium) | 10 min | S (S = Strong)
